This is an account of results in patent US9513280B2, “Microfluidic biological barrier model and associated method” (The University of Utah Research Foundation, priority 2012, dated 2016).

The test concerns co-cultured μBBB models (bEnd.3 endothelial cells and C8-D1A astrocytes). The conditions noted are these: for period of transient TEER drop: co-cultured μBBB on day 4. On the procedure:
To evaluate the fabricated μBBB system, three methods were employed: (1) Cell imaging to observe structure and morphology, (2) TEER levels to evaluate cell confluence and tight junction integrity, and (3) permeability assays to evaluate barrier selectivity. Cells were imaged with a Live/Dead assay to verify cell viability, and immunostained to look at expression of astrocyte marker GFAP and tight junction component […] (ZO-1). TEER was measured as an indicator of cell confluence and tight junction integrity, with time to maximum TEER being indicative of BBB development time. Fluxes of fluorescent-labeled tracer molecules were measured to assess permeability to larger solutes. […] Permeability was measured in μBBB models exposed to DMEM:F12 media with elevated pH (>10) for 4 h.
Over the course of the μBBB model evaluation experiments, TEER was measured twice a day to monitor cell confluence and development of tight junctions. For measurement of TEER, voltage and current electrode wires were connected via an electrode adaptor (WPI) to an EVOM2 epithelial voltohmmeter (WPI). The EVOM2 passes a constant 10 μA AC current at 12.5 Hz while measuring resistance. To calculate TEER, initial D0 Background resistances Rb were subtracted from total resistance RC at each time point and normalized for area, giving TEER values in Ωcm^2 as in the following equation: TEER=(RC−Rb)A
TEER of transwell cultures were measured daily by placing them in an Endohm chamber (WPI) and connecting it to the EVOM2.

Like-named read-outs stand apart in the source and are kept apart here.

Take `NCCc1c[nH]cn1` [histamine]: where the note is “100 μM histamine”, the “time for TEER to return to initial levels” value is given as “within six minutes” and the “period of transient TEER drop” value fell in the range of 5 to 7 min. Besides, under “150 μM histamine”, the “time for TEER to return to initial levels” value is not above 15 min and the “period of transient TEER drop” value fell in the range of 8 to 15 min.
